2 molecules from patent US9353115B2, “Immune system modulators” (JANUS BIOTHERAPEUTICS, INC., priority 2011, dated 2016) can be followed below.

What is called IC50 is the midpoint of a concentration-inhibition curve.

In test [1] the target is TLR9 (Mus musculus (Mouse), UniProt Q9EQU3). The experiment in a line: In vivo TLR knockdown: serum IL-12 after CpG ODN 1668 TLR9 agonist injection in C57Bl/6J mice. The note with it: male C57Bl/6J mice; single intraperitoneal dose; CpG ODN 1668 i.p. 1 hr later; serum IL-12 ELISA 3 hours post agonist. The method, then:
The Effects of Test Articles on Toll-Like Receptor (TLR) Knockdown Following a Single Intraperitoneal Dose to Male C57Bl/6 Mice.
Toll-Like Receptor (TLR) knockdown effect of test articles was evaluated in a C57Bl/6J mouse. Primary end points included a terminal blood collection for analysis of cytokine production in response to CpG-DNA TLR9 agonist injection. Male C57Bl/6J mice, at ˜8 weeks of age from Jackson Laboratories were used. Test groups were 3 mice per treatment group and the groups were administered test article in a series of descending doses within the range of 400 μg to 10 μg. Test article treatment was dosed at T=0 hr by intraperitoneal injection. Agonist (CpG ODN 1668) treatment was dosed one hour later, T=1 hr by intraperitoneal injection. Necropsy was performed 3 hours post agonist treatment, T=4 hr. Blood samples were collected into serum separator tubes, allowed to clot at room temperature for at least 20 minutes, centrifuged at ambient temperature at 3000 g for 10 minutes, and the serum was extracted. ELISA was performed to determine murine IL-12 levels following manufacture's protocol (BioLegend Inc.). Serum IL-12 levels were calculated and plotted versus administered dose of antagonist and inhibitory dose at 50% (ID50) was determined.
In general terms: In an ELISA, binding on a coated surface is turned into a signal by an enzyme label.

Test [2] addresses human TLR9 (hTLR9) (Homo sapiens (Human), UniProt Q9NR96). Kind of test: TLR9 antagonist assay in HEK-Blue-hTLR9 cells (SEAP reporter, ODN 2006 agonist). In kind it is cell-based. The note with it: inhibition of hTLR9 dependent SEAP production, hTLR9 agonist such as ODN 2006, 1 μM, read-out: hTLR9 antagonism IC50. The text has this:
HEK-Blue™-hTLR9 cells were obtained from InvivoGen Inc. and used to determine test compound antagonism of human TLR9 (hTLR9) driven responses. HEK-Blue™-hTLR9 cells are designed for studying the stimulation of human TLR9 by monitoring the activation of NF-kB. As described by the manufacturer, “HEK-Blue™-hTLR9 cells were obtained by co-transfection of the hTLR9 gene and an optimized secreted embryonic alkaline phosphatase (SEAP) reporter gene into HEK293 cells. The SEAP reporter gene is placed under the control of the IFN-b minimal promoter fused to five NF-kB and AP-1 binding sites. Stimulation with a TLR9 ligand activates NF-kB and AP-1 which induces the production of SEAP. Levels of SEAP can be easily determined with QUANTI-Blue™ a detection medium that turns purple/blue in the presence of alkaline phosphatase”. […]
Invivogen's QUANTI-Blue™ was prepared following the manufacturer's instructions. […] SEAP levels were determined using a spectrophotometer at 620 nm.
The concentration dependent inhibition of hTLR9 dependent SEAP production was expressed as the concentration of compound which produced half the maximal level of SEAP induced by the hTLR agonist alone. Percent activity was calculated for each observation using the formula: % activity=((observed O.D.−background O.D.)/(agonist only O.D.−background O.D.))*100. […]

Chain of human TLR9 (hTLR9) (Q9NR96 26-1032): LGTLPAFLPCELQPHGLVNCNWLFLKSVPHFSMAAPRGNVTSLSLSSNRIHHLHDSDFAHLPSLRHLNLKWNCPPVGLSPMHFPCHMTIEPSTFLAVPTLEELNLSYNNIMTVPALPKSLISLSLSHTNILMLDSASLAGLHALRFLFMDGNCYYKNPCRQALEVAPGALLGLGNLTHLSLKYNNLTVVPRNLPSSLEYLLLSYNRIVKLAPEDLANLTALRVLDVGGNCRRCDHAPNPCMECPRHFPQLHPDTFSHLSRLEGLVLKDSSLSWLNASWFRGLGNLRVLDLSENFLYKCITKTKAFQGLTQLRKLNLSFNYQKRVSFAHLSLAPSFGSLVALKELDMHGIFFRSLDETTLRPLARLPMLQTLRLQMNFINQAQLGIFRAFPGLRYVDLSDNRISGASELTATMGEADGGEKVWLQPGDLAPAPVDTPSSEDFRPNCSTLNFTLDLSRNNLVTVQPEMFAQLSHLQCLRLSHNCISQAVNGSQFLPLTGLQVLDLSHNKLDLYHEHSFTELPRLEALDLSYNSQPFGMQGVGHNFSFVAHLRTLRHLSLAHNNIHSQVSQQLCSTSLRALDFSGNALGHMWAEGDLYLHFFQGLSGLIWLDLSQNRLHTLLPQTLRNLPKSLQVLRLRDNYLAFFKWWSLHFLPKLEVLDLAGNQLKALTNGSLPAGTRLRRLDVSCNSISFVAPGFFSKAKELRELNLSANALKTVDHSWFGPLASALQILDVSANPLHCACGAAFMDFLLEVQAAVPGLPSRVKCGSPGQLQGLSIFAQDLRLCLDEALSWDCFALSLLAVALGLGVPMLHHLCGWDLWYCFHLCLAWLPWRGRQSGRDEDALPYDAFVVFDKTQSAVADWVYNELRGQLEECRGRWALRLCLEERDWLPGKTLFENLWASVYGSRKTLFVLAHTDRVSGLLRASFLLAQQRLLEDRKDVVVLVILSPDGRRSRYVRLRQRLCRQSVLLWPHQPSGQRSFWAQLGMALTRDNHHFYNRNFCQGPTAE
Chain of TLR9 (Q9EQU3 26-1032): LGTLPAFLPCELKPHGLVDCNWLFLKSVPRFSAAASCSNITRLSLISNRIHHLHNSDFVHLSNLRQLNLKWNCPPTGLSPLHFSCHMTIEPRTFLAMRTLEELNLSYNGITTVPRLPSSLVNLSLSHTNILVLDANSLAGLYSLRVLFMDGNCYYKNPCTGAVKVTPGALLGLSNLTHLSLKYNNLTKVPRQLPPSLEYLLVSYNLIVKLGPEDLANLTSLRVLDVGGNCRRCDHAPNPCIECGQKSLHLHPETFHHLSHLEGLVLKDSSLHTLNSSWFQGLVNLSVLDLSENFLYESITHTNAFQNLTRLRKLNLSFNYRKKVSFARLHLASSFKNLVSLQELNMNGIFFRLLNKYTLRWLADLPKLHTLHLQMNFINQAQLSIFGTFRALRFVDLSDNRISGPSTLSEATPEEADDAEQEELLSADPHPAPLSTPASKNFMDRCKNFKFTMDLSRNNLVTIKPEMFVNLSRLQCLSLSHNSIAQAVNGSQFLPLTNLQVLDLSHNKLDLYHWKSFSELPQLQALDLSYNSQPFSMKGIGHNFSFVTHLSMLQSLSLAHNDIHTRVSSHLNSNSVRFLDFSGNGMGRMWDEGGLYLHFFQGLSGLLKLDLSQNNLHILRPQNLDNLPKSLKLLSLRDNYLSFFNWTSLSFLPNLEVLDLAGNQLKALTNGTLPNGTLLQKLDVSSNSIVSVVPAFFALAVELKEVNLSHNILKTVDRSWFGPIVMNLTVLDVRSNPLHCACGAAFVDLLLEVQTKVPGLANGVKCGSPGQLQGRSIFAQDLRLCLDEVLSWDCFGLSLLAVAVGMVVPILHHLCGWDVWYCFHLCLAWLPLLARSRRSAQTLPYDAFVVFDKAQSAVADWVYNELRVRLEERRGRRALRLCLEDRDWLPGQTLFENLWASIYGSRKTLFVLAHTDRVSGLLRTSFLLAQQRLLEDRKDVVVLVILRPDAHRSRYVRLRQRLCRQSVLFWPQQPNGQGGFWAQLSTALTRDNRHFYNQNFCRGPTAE

In the case of `CN1CCN(CCNc2nc(-c3ccccc3)nc3c2nc(O)n3CCN2CCOCC2)CC1` [Example 57], in test [1], the “In vivo TLR antagonism ID50 (inhibitory dose at 50% of serum IL-12)” value was 348 µg. The IC50 in test [2] came out at 271 nM.

For the molecule `CN1CCN(CCn2c(O)nc3c(NCCN4CCOCC4)nc(-c4ccccc4)nc32)CC1` [Example 63], the IC50 in test [2] was 497 nM.
